Several values for one entry are separate records, joined by “and”; a condition that tells them apart may be missing. Identical values can stand only once. Like-named read-outs stand apart in the source and are kept apart here.
Assays:
[1] = biological target: T1, E-selectin (Homo sapiens, UniProt P16581); test: E-selectin competitive binding assay (sLe^a polyacrylamide conjugate)
T1 construct: fused on or other part: Ig (immunoglobulin Fc) part fused on as a handle for immobilisation
T1 sequence (P16581 22-175 limits assumed): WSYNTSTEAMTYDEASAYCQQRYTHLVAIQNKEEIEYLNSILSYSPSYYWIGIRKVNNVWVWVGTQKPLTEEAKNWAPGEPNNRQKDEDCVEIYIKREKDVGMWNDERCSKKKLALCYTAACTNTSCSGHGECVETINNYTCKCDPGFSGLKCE
Experimental: (§1) The inhibition assay to screen for and characterize glycomimetic antagonists of E-selectin is a competitive binding assay, which allows the determination of IC50 and IC90 values. An E-selectin/Ig chimera was immobilized in 96 well microtiter plates by incubation at 37° C. for 2 hours. To reduce nonspecific binding, bovine serum albumin was added to each well and incubated at room temperature for 2 hours. The plate was washed and serial dilutions of the test compounds were added to the wells in the presence of conjugates of biotinylated, sLe^a polyacrylamide with streptavidin/horseradish peroxidase and incubated for 2 hours at room temperature.
(§2) To determine the amount of sLe^a bound to immobilized E-selectin after washing, the peroxidase substrate, 3, 3′, 5, 5′ tetramethylbenzidine (TMB) was added. After 3 minutes, the enzyme reaction was stopped by the addition of H3PO4, and the absorbance of light at a wavelength of 450 nm was determined. The concentration of a compound of Formula (I), required to inhibit binding by 50% was determined and reported as the IC50. The concentration required to inhibit binding by 90% was determined and reported as the IC90.

[2] = biological target: T2, E-selectin (Mus musculus, UniProt Q00690); test: as above
T2 construct: fused on or other part: Ig (immunoglobulin Fc) part fused on as a handle for immobilisation
T2 sequence (Q00690 22-175 limits assumed): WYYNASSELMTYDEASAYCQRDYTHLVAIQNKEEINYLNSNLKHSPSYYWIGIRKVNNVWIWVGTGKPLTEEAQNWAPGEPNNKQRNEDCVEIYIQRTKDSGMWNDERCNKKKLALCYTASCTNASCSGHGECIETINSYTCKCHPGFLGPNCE
Experimental: as §1, §2

[3] = tested on: relapsed/refractory type acute myeloid leukemia (AML); test: Phase 1 clinical outcomes, relapsed/refractory AML, sodium salt infusion with MEC; assay type: in vivo; conditions: R/R AML
Experimental: Three cohorts of 6-7 human subjects with relapsed/refractory type acute myeloid leukemia (AML) each received a total of 15 infusions of 5, 10, or 20 mg/kg/dose of the compound of Formula (I), administered as the sodium salt, over 8 days with a nominal infusion duration of 20 minutes. The nominal infusion duration of 20 minutes was constant across cohorts (e.g., a slower infusion rate was used for the administration of the 5 mg/kg/dose arm than for the 10 mg/kg/dose arm). The formulation for the infusion solution was as follows: […]
The first dose of a compound of Formula (I) was administered 24 hours±1 hour prior to the first dose of MEC (mitoxantrone, etoposide, and cytarabine) induction chemotherapy as a sentinel dose to evaluate the effect of the compound of Formula (I) alone (i.e., a single dose of 5, 10, or 20 mg/kg the day before the first chemotherapy day). The compound of Formula (I) was then administered every 12 hours±1 hour on chemotherapy days, starting 2 hours prior to chemotherapy (i.e., 10, 20, or 40 mg/kg per day on chemotherapy days). […] MEC chemotherapy was administered on Days 2-6.
The clinical outcome for each subject was assessed at the time of count recovery following completion of induction chemotherapy. Subjects were assigned to one of four response groups: complete remission (“CR”); complete remission with incomplete count recovery (“CRi”); morphologic leukemia-free state (“MLFS”); persistent disease (“PD”). Complete remission was defined as bone marrow blasts <5%; absence of circulating blasts and blasts with Auer rods; absence of extramedullary disease; ANC ≥1.0×10^9/L and platelets ≥100,000×10^9/L. Complete remission with incomplete recovery was defined as: all CR criteria except for residual neutropenia (<1.0×10^9/L) or thrombocytopenia (<100,000×10^9/L). Morphologic leukemia-free state was defined as: bone marrow blasts <5%; absence of blasts with Auer rods; absence of extramedullary disease; no hematologic recovery required. Persistent disease was defined as: bone marrow blasts >5%.

[4] = Exposure-response analysis for adverse events; assay type: in vivo, human; conditions: 53 R/R and 25 newly diagnosed older AML subjects, with chemotherapy
Experimental: For Example 15, Exposure-Response (“E-R”) analysis evaluating adverse events against PK metrics was conducted. The sample population for Example 15 included 53 subjects with relapsed/refractory (R/R) AML and 25 older subjects (aged 60 years or older) with newly diagnosed AML. R/R AML subjects were administered MEC chemotherapy and 5, 10, and 20 mg/kg of a compound of Formula (I) BID (i.e., 10, 20, and 40 mg/kg per day). The older subjects (aged 60 years or older) with newly diagnosed AML were administered 7+3 chemotherapy and 10 mg/kg of a compound of Formula (I) BID (i.e., 20 mg/kg per day).
Exposure metrics for the adverse events (“AE”) analysis were generated using the same Pop-PK model described in Example 14. […] Cumulative AUC was determined through each study day. For each metric/day combination, percentile rankings and normalized values were determined. For example, the median of Day 6 AUC values was determined, and normalized values were obtained by dividing each value by the median. In addition, these Day 6 AUC values were ranked, and then multiplied by 100% divided by the number of values to obtain a percentile value.
Adverse events (“AEs”) were classified according the Common Terminology Criteria for Adverse Events (“CTCAE”). […]

## CC[C@@H]1CC(C(=O)NCCNC(=O)CCOCCOCCOCCOCCOCCOCCOCCOCCOCCOCCOCCOC)C[C@@H](O[C@@H]2O[C@@H](CO)[C@H](O)C(O[C@@H](CC3CCCCC3)C(=O)O)C2NC(C)=O)C1OC1O[C@@H](C)C(O)[C@H](O)[C@@H]1O (stereo partly shown) [compound of Formula (I)]
[1]
  IC50: 2440 nM and 2400 nM
  IC90: 7535 ng/mL
[1]; read-out: IC90
  IC90: 7.54 µg/mL and 5.68 µM
[2]
  IC50: 2450 nM and 2490 nM
  IC90: 3.7 µM and 4.91 µg/mL
[3]; 10 mg/kg/dose
  CR with incomplete recovery (CRi): 0 n
  Morphologic Leukemia-Free State (MLFS): 0 n
[3]; 20 mg/kg/dose
  CR with incomplete recovery (CRi): 0 n
  Morphologic Leukemia-Free State (MLFS): 0 n
[3]; Phase 1
  All-Cause Mortality 30 days: 0 n
  CR/CRi Rate: Cytogenetics (SWOG) Favorable risk: 0 n
  CR/CRi Rate: FLT3-ITD mutated: 0 n
  CR/CRi Rate: Relapsed ≥12-<24 months: 0 n
  Partial Remission (PR): 0 n
[3]; Phase 1 subgroup
  CR Rate: Cytogenetics Favorable risk: 0 n
[4]
  adverse events vs exposure (AUC, cumulative AUC, Cmax): no strong tendency toward increased AEs, nor increased severity of AEs with exposure

— patent US11707474B2, “Methods for treating acute myeloid leukemia and related conditions” (GlycoMimetics, Inc., priority 2018, dated 2023)
